54 compounds from PubChem BioAssay AID179 (DTP/NCI, 2004) can be followed below.

The assay concerns CEM cells HIV-1 protection, formazan growth assay. Briefly: NCI AIDS Antiviral Assay. As to conditions: for IC50: measured here: growth of uninfected CEM cells. The method in brief: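 Protection of CEM cells against HIV-1 was scored from cell growth (soluble formazan) across five concentrations, with parallel uninfected cells. Lack of protection may reflect toxicity.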

Activity calls are given as the source filed them.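 The calls were made as follows: active = compounds giving half or more protection of infected cells from virus-caused growth loss, again on retest; inactive = the rest.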

For `Cc1ccc(C=C(C(=O)O)C(=O)O)cc1`, the EC50 is more than 1200 µM and the IC50 is more than 1200 µM.
As for `Cc1ccc(S(=O)(=O)NCCCSCCN)cc1`, the EC50 is more than 631 µM and the IC50 was found to be 562 µM.
For `O=C(NNc1nc2cccnc2n2ccnc12)c1cnccn1` the same measures were more than 1 µM and 0.135 µM.
As to `Cc1cc(C)nc(NS(=O)(=O)c2ccc(NC(=O)c3cccnc3Nc3cccc(Cl)c3)cc2)n1`, the result was inactive.
In turn, `CC(=O)Nc1ccc([As](=O)(O)O)cc1C(=O)O` gave an EC50 of more than 200 µM and an IC50 of more than 200 µM.
Turning to `CC(=O)/C(=C\N1CCNC1=S)C(=O)Nc1ccccc1`, the EC50 is more than 200 µM and the half-maximal inhibitory concentration (IC50) was more than 200 µM.
For the compound `O=c1oc2cc(O)ccc2c(O)c1C(c1ccccc1F)c1c(O)c2ccc(O)cc2oc1=O`, the result was inactive.
As to `CC(C)(C)C(=O)O[C@H]1C=C[C@@H](O)[C@@H]2[C@H]1[C@@H]1C=C[C@H]2C1`, the EC50 was more than 200 µM and the IC50 was 22.9 µM.
The corresponding values for `NC(=O)c1cc2ccccc2[n+](Cc2ccc(F)cc2)c1` are 200 µM and 339 µM.
The corresponding values for `Nc1nc2c3nc(Nc4ccccc4)sc3nc(=S)n2c2sc(Nc3ccccc3)nc12` are more than 11 µM and more than 11 µM.
The corresponding values for `CCOC(=O)C1(Cc2ccccc2)Cc2cc3c(cc2C1=O)CCC3` (stereo not given) are more than 200 µM and 14.8 µM.
Consider `OCC(O)C(Cl)CCl` (stereo not given), for which the EC50 is more than 200 µM and the IC50 is more than 200 µM.
Regarding `O=c1oc2c(-c3c(O)c(=O)oc4ccccc34)cc(O)cc2s1`, the EC50 is more than 209 µM and the IC50 came to 97.7 µM.
On to `COc1cc(O)c(C(=O)/C=C/c2ccccc2)c(O)c1C1C=C(C)CCC1C(C)C` (stereo not given), for which the outcome was inactive.
For `COC1C(OC(=O)/C=C/C=C/C=C/C=C\C(=O)O)CCC2(CO2)C1C1(C)OC1CC=C(C)C` (stereo not given), the EC50 was 49 µM and the IC50 is more than 200 µM.
For `CCC(Oc1ccc(OC)c2ccccc(=O)c12)C(=O)O` (stereo not given), the result was inactive.
Still for that read-out and setting: as for `O=C(O)CCCC(=O)CCCC(=O)O`, the entry is “inactive”.
For the compound `CN1CSC(=S)N(C)C1`, the EC50 was more than 200 µM and the IC50 turned out to be 13.2 µM.
For `CCCCCCC[CH2][Sn]1([CH2]CCCCCCC)[O]C(=O)c2cccnc2[S]1` the same measures were 0.794 µM and 91.2 µM.
The corresponding values for `Cc1ccc(-n2cc(-c3ccc(Cl)cc3)c(C#N)c2N)cc1` are more than 200 µM and 22.4 µM.
The corresponding values for `COC(=O)CC[C@@H](C)C1CCC2(C)c3ccc4c(c3C(=O)C[C@]12C)CC[C@H](OC(C)=O)C4(C)C` (stereo not given in full) are more than 100 µM and more than 100 µM.
In the case of `CCOc1ccc2nc(NC(=O)C(=O)C3C(=O)C(CC4C(=O)c5ccccc5C4=O)C(=O)CC3(C)C)sc2c1` (stereo not given), the EC50 is more than 6.92 µM and the IC50 was more than 6.92 µM.
On to `O=C(CN1C(=O)c2cccc3c(Br)ccc(c23)C1=O)c1ccc(Cl)cc1`, for which the EC50 was more than 200 µM and the IC50 amounted to 33.1 µM.
For `CC(=O)NNc1nc(C)c(C(/C=C/c2ccc([N+](=O)[O-])cc2)=N/NC(N)=O)s1` the same measures were more than 33.9 µM and more than 33.9 µM.
Turning to `CCOC(=O)NN(C(=O)OCC)c1c(C)cc(C)cc1C`, the EC50 is more than 200 µM and the IC50 was more than 200 µM.
`CC(c1ccccc1)n1c2ccccc2c2c(N)ncnc21` (stereo not given): the EC50 is more than 200 µM and the 50% inhibitory concentration (IC50) came out at 17.8 µM.
In the case of `CC(Nc1ccc(Cl)cc1)c1ccncc1` (stereo not given), the EC50 was more than 200 µM and the IC50 stood at 72.4 µM.
For `CCOC(=O)[C@@H]1[C@@H]2NC(=O)N[C@@]1(C)Oc1ccccc12` the same measures were more than 200 µM and more than 200 µM.
The corresponding values for `C[N+]1(C)C/C(=C\c2ccc(O)cc2)C(=O)/C(=C/c2ccc(O)cc2)C1` are more than 77.6 µM and 56.2 µM.
As for `Cc1cc(N(CCC#N)CCC#N)ccc1N=Nc1ccc(C(=O)O)cc1`, the EC50 was more than 100 µM and the IC50 is more than 100 µM.
As to `c1ccc(CN2CCC3(CC2)SSC2(CCN(Cc4ccccc4)CC2)SS3)cc1`, the EC50 was more than 100 µM and the IC50 stood at 64.6 µM.
Consider `COc1cc(N=Nc2cc(NC(C)=O)c(N=Nc3ccc(S(=O)(=O)O)cc3)cc2S(=O)(=O)O)c(C)cc1N=Nc1cc(OC)c(NC(=O)c2ccc(N)cc2)cc1C`, for which the EC50 is 4.57 µM and the IC50 is 191 µM.
Take `O=[N+]([O-])C(Cl)C(Cl)C(Cl)=C(Cl)Cl` (stereo not given): the EC50 is more than 200 µM and the half-maximal inhibitory concentration (IC50) is more than 200 µM.
`C=C(Br)N(CC)CC`: the EC50 was more than 251 µM and the IC50 is more than 251 µM.
With `O=C(c1nc2ccc([N+](=O)[O-])cc2[nH]c1=O)C(O)c1ccc2c(c1)OCO2` (stereo not given), the EC50 is more than 676 µM and the half-inhibitory concentration (IC50) came to 245 µM.
Take `O=C1Sc2cc3c(cc2C(=O)N2CCCC12)OCO3` (stereo not given): the EC50 is more than 182 µM and the IC50 turned out to be 129 µM.
On to `COc1cccc(/C=C2\N=C(c3ccccc3)OC2=O)c1OC`, for which the EC50 is more than 200 µM and the IC50 is 91.2 µM.
The corresponding values for `COc1ccccc1N1CCCSC1=Nc1ccccc1` are 81.3 µM and 214 µM.
For `Cc1c(OCc2cccc3ccccc23)ccc2c(=O)cc(SCCN3CCOCC3)oc12`, the result was inactive.
Turning to `CCOC(=O)c1cc(-c2ccn(C(C)=O)c2)c(-c2cc(C)co2)[nH]1`, the EC50 is 18.2 µM and the 50% inhibitory concentration (IC50) was more than 200 µM.
As for `O=C1CCC2COc3ccc(O)c1c32` (stereo not given), the outcome was inactive.
Turning to `N#CC(/C=C/c1ccccc1)Nc1ccccc1CO` (stereo not given), the EC50 was more than 27.5 µM and the IC50 is more than 27.5 µM.
Turning to `CCCCCCCCCCCCCCNCC(OCC)OCC`, the EC50 is more than 200 µM and the IC50 was determined as 9.33 µM.
On to `O=C(O)[C@H](Cc1ccccc1)NCCN1CCC[C@H]1C(=O)O`, for which the EC50 was more than 200 µM and the IC50 was more than 200 µM.
Consider `CC(=O)Nc1ccc2c(C)c3c4ccccc4n(C)c3nc2n1`, for which the EC50 was more than 200 µM and the IC50 worked out at 5.25 µM.
For `CC(=O)Nc1ccc(/C=C/C(=O)c2sc(-c3nc(C)c(C(=O)/C=C/c4ccc(NC(C)=O)cc4)s3)nc2C)cc1` the same measures were more than 33.1 µM and more than 33.1 µM.
For `CCCC1=NNc2n[nH]c(=S)n2N1` the same measures were more than 132 µM and 58.9 µM.
The corresponding values for `O=c1c(-c2cccc(O)c2O)coc2cc(OC3OC(CO)C(O)C(O)C3O)ccc12` (stereo not given) are more than 200 µM and more than 200 µM.
For the compound `O=C(CC/C(CC(=O)c1ccc(Cl)cc1)=N/O)Nc1ccc(Cl)c(Cl)c1`, the EC50 was more than 437 µM and the half-inhibitory concentration (IC50) is more than 437 µM.
Regarding `CCOC(=O)C1CCn2c(nc3c2c(=O)n(C)c(=O)n3C)S1` (stereo not given), the result was inactive.
Turning to `CCOC(=O)c1cnc2c(ccc3ncccc32)c1OCC`, the EC50 was more than 120 µM and the IC50 amounted to 72.4 µM.
For `O=C(N/C(=C\c1c(O)ccc2ccccc12)c1nc2ccccc2[nH]1)c1ccccc1` the same measures were more than 22.4 µM and more than 22.4 µM.
For `CCCCCCC(N)(CCCCCC)C(=O)Nn1c(C)ccc1C`, the EC50 is more than 200 µM and the half-inhibitory concentration (IC50) is 16.2 µM.
For `COc1ccc2c(=O)c3ccoc3[nH]c2c1` the same measures were more than 100 µM and more than 100 µM.
